Measured values reported in US10793575B2, “Oxoisoquinoline derivatives” (CARNA BIOSCIENCES, INC., priority 2016, dated 2020).

Tests used:
[1] = target: C481S mutant BTK [BTK(C481S)] (Homo sapiens (Human), UniProt Q06187, C481S); test: C481S Mutant BTK Inhibitory Activity Test (mobility shift assay); assay type: biochemical; conditions: for IC50: C481S mutant BTK, 100 μM ATP; for C481S mutation-resistance: IC50[BTK(C481S)]/IC50[BTK(WT)]
Method: (§1) The kinase activity was measured using QuickScout Screening Assist (trademark) MSA (commercially available kit manufactured by Carna Biosciences, Inc.) by mobility shift assay (MSA) method. The substrate of the kinase reaction was an FITC-labeled SRCtide peptide included in the kit. […] The 10 mM solution of the test compound in DMSO was further diluted with DMSO to 10 levels of the concentration (0.00003 mM, 0.0001 mM, 0.0003 mM, 0.001 mM, 0.003 mM, 0.01 mM, 0.03 mM, 0.1 mM, 0.3 mM, 1 mM), each of which was subjected to a 25-fold dilution with the assay buffer to obtain the drug solutions (4% DMSO solutions).
(§2) 5 μL of the drug solution or a control solution (4% DMSO-assay buffer), 5 μL of the substrate mixture solution, and 10 μL of the enzyme solution were mixed in the wells of a polypropylene 384-well plate and allowed to react at room temperature for 1 hour, and then quenched by adding 60 μL of the termination buffer included in the kit. Subsequently, the quantities of the substrates (S) and the phosphorylated substrate (P) in the reaction solution were measured using LabChip EZ Reader II system (manufactured by Caliper Life Sciences) according to the protocol of the assay kit.
(§3) The heights of the peaks of the isolated substrate and the phosphorylated substrate were represented as S and P, respectively, and a blank which contained the assay buffer instead of the enzyme solution was also measured.
(§4) The inhibition rate (%) of the test compound was calculated according to the following equation; Inhibition rate (%)=(1−(C−A)/(B−A))×100 • wherein, A, B and C represent P/(P+S) of the blank well, P/(P+S) of the control well and P/(P+S) of the compound-containing well, respectively.
(§5) The IC50 value was calculated via a regression analysis of the inhibition rate (%) and the test compound concentration (logarithmic value).

BTK = BTK (Homo sapiens (Human), UniProt Q06187); test: Intracellular BTK Auto-Phosphorylation Activity Inhibition Test in Ramos cells; assay type: cell-based; conditions: test compound 0.03 μM, anti-IgM stimulation, pY223, read-out: Inhibitory Activity on BTK-phosphorization
Chain of BTK (Q06187 whole entry): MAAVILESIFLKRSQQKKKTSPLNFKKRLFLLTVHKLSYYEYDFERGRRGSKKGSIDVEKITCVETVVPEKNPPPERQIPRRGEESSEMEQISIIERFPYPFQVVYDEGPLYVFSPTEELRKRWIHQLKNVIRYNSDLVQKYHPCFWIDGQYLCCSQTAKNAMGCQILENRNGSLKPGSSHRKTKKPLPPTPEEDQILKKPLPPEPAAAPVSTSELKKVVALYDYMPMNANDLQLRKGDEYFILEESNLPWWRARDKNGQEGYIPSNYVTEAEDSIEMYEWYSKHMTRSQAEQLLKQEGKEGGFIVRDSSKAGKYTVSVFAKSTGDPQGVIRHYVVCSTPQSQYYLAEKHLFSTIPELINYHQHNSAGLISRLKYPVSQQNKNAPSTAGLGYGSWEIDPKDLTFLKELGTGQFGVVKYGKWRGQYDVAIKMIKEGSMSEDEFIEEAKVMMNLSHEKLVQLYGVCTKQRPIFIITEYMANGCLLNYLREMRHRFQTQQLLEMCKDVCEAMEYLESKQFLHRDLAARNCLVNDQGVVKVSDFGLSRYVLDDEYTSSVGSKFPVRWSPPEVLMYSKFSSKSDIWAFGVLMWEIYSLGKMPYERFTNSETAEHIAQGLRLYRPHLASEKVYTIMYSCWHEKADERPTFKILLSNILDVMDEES
Method: Ramos cells (2G6.4C10, ATCC No. CRL-1923) were cultured in a T75 flask containing RPMI-1640 medium (GIBCO, # A10491-01) supplemented with 10% FBS (AusGene) and 1% penicillin-streptomycin (Nacalai Tesque, Inc.) (hereinafter referred to as growth medium) in a 5% CO2 incubator.
The cultured Ramos cells were diluted to a cell density of 7.5×10^6 cells/mL with a serum-free RPMI-1640 (hereinafter referred to as medium) and kept at 37° C. for 45 minutes. The cell suspension was dispensed in 1 mL aliquots into 2.0 mL tubes. A 0.03 mM solution of the test substance in DMSO was diluted with the medium to make a 0.09 μM test compound solution, 500 μL of which was then added to the tubes and the incubation was conducted at 37° C. for 1 hour in the presence of the test compound at a final concentration of 0.03 μM. Thereafter, the anti-IgM antibody (Invitrogen, H15100) which had been diluted with the medium was added at a final concentration of 10 μg/mL, and the incubation was conducted at 37° C. for 10 minutes.
To the pellets obtained by recovering the cells via centrifugation, 100 μL of a lysis buffer [RIPA Buffer(×1)(Cell Signaling Technology, Inc.) supplemented with 1% Phosphatase inhibitor Cacktail 3 (Sigma Corporation, No. P0044), 1% Phosphatase inhibitor Cacktail (Nacalai Tesque, Inc., No. 07575) and 1 mM phenylmethylsulfonyl fluoride (PMSF)] was added and stirred gently and then allowed to stand for 10 minutes. The supernatant was recovered by centrifugation (15,000 rpm, 15 minutes) and the protein level was quantified. The portion was mixed with the SDS-sample buffer, allowed to react for 5 minutes at 95° C. to denature the protein, thereby obtaining a sample solution. Each 5 μL of the sample solutions was applied to each well containing a 5 to 20% gradient acrylamide gel (Nacalai Tesque, Inc., No. 13064-04) and electrophoresis was conducted. Thereafter, iBlot gel transfer system (Life Technologies Corporation) was used to transfer the proteins in the gel onto a PVDF membrane.
The PVDF membrane after transfer was blocked with 2% ECL prime blocking Reagent (GE Healthcare) and thereafter the reaction was conducted overnight at 4° C. using anti-BTK mouse antibody (BD transduction laboratory, No. 611116) or anti-phosphorylated BTK rabbit antibody (pY223, EPITOMICS, No. 2207-1) as a primary antibody. The unreacted primary antibody was washed with a TBST buffer (10 mM Tris-HCl (pH 7.5), 150 mM NaCl, 0.1% Tween 20) and then the reaction was conducted for 1 hour at room temperature in a TBST buffer supplemented with 2% ECL prime blocking Reagent using HRP-labeled anti-mouse IgG horse antibody (Cell Signaling Technology, No. 7076) or anti-rabbit IgG goat antibody (Cell Signaling Technology, No. 7074) as a secondary antibody. After washing the unreacted secondary antibody with the TBST buffer, Chemi-Lumi One Super (Nacalai Tesque, Inc.) was used to conduct a reaction in accordance with the attached protocol, and then the respective bands as chemiluminescences were detected with a CCD camera (GE Healthcare ImageQuant LAS 500). […] Each phosphorylated BTK band was corrected based on the total BTK.
The intracellular BTK autophosphorylation inhibiting activity was indicated with the mark “***” when 90% or more, with the mark “**” when 70% or more and less than 90%, and with the mark “*” when 50% or more and less than 70%.

dephosphorylated BTK = dephosphorylated BTK (Homo sapiens (Human), UniProt Q06187); test: BTK Activity Inhibition Test (mobility shift assay); assay type: biochemical; conditions: 200 μM ATP, read-out: Inhibitory Activity on BTK
Chain of dephosphorylated BTK (Q06187 whole entry): as above
Procedure, shortened: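 Biotinylated human BTK was dephosphorylated with λ phosphatase and assayed by mobility shift, with FITC-SRCtide as substrate in 20 mM HEPES pH 7.5, 0.01% Triton X-100 and 2 mM DTT. The substrate mix held 4 μM substrate, 20 mM MgCl2 and 200 μM ATP, and the enzyme solution held 0.46 nM BTK (stock levels, not final). After 2 h at room temperature, % inhibition was derived from P/(P+S) and IC50 by log-concentration regression.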

wild type BTK [BTK(WT)] = wild type BTK [BTK(WT)] (Homo sapiens (Human), UniProt Q06187); test: C481S Mutant BTK Inhibitory Activity Test, wild type BTK (mobility shift assay); assay type: biochemical; conditions: 120 μM ATP
Chain of wild type BTK [BTK(WT)] (Q06187 whole entry): as above
Method: as §1, §2, §3, §4, §5

OCI-Ly10 cells = test: Proliferation-Inhibitory Test Against Diffuse Large-Cell B-Cell Lymphoma OCI-Ly10 Strain; assay type: cell-based; conditions: Homo sapiens, 96 hours, alamarBlue
Procedure, shortened: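 Proliferation was read by alamarBlue after a 96-hour incubation. Final compound concentrations spanned 0.9 nM to 30000 nM with 0.3% DMSO. Cells were seeded at 20000 per well in IMDM containing 20% fetal bovine serum under 5% CO2.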

Chain of C481S mutant BTK [BTK(C481S)] (Q06187 whole entry C481S): as the sequence (Q06187 whole entry) above, with C481S counted along it

Structure (SMILES)	IC50 [1]	C481S mutation-resistance [1]	inhibition at 0.03 µM (BTK)	IC50 (dephosphorylated BTK)	IC50 (wild type BTK [BTK(WT)])	IC50 (OCI-Ly10 cells)
Nc1nc(-c2cccc(-n3ccc4cc(C5CC5)cc(F)c4c3=O)c2CO)c2nc(-c3ccccc3)[nH]c2n1 [Example 2, 2-[3-(2-amino-8-phenyl-9H-purin-6-yl)-2-(hydroxymethyl)phenyl]-6-cyclopropyl-8-fluoroisoquinolin-1(2H)-one]	0.99 nM	1.0	≥ 90%	< 10 nM	0.97 nM	68 nM
CN1CCN(Cc2ccc(-c3cc4c(-c5cccc(-n6ccc7cc(C8CC8)cc(F)c7c6=O)c5CO)nc(N)nc4[nH]3)cc2)CC1 [Example 8, 2-[3-(2-amino-6-{4-[(4-methylpiperazin-1-yl)methyl]phenyl}-7H-pyrrolo[2,3-d]pyrimidin-4-yl)-2-(hydroxymethyl)phenyl]-6-cyclopropyl-8-fluoroisoquinolin-1(2H)-one]	0.43 nM	1.3	≥ 90%	< 10 nM	0.33 nM	4 nM
Cn1cc(-c2cc3c(-c4cccc(-n5ccc6cc(C7CC7)cc(F)c6c5=O)c4CO)nc(N)nc3[nH]2)cn1 [Example 13, 2-{3-[2-amino-6-(1-methyl-1H-pyrazol-4-yl)-7H-pyrrolo[2,3-d]pyrimidin-4-yl]-2-(hydroxymethyl)phenyl}-6-cyclopropyl-8-fluoroisoquinolin-1(2H)-one]	0.6 nM	1.2	≥ 90%	< 10 nM	0.49 nM	27 nM
COc1cccc(-c2cc3c(-c4cccc(-n5ccc6cc(C7CC7)cc(F)c6c5=O)c4CO)nc(N)nc3[nH]2)c1 [Example 15, 2-{3-[2-amino-6-(3-methoxyphenyl)-7H-pyrrolo[2,3-d]pyrimidin-4-yl]-2-(hydroxymethyl)phenyl}-6-cyclopropyl-8-fluoroisoquinolin-1(2H)-one]	–	–	≥ 90%	< 10 nM	–	–
COc1ccc(-c2cc3c(-c4cccc(-n5ccc6cc(C7CC7)cc(F)c6c5=O)c4CO)nc(N)nc3[nH]2)cc1 [Example 16, 2-{3-[2-amino-6-(4-methoxyphenyl)-7H-pyrrolo[2,3-d]pyrimidin-4-yl]-2-(hydroxymethyl)phenyl}-6-cyclopropyl-8-fluoroisoquinolin-1(2H)-one]	–	–	≥ 90%	< 10 nM	–	–
Nc1nc(-c2cccc(-n3ccc4cc(C5CC5)cc(F)c4c3=O)c2CO)c2cc(-c3cccnc3)[nH]c2n1 [Example 17, 2-{3-[2-amino-6-(pyridin-3-yl)-7H-pyrrolo[2,3-d]pyrimidin-4-yl]-2-(hydroxymethyl)phenyl}-6-cyclopropyl-8-fluoroisoquinolin-1(2H)-one]	–	–	≥ 90%	< 10 nM	–	–
COc1cccc(-c2nc3c(-c4cccc(-n5ccc6cc(C7CC7)cc(F)c6c5=O)c4CO)nc(N)nc3[nH]2)c1 [Example 18, 2-{3-[2-amino-8-(3-methoxyphenyl)-9H-purin-6-yl]-2-(hydroxymethyl)phenyl}-6-cyclopropyl-8-fluoroisoquinolin-1(2H)-one]	–	–	≥ 90%	< 10 nM	–	–
Nc1nc(-c2cccc(-n3ccc4cc(C5CC5)cc(F)c4c3=O)c2CO)c2cc(C3=CCN(C4COC4)CC3)[nH]c2n1 [Example 23, 2-(3-{2-amino-6-[1-(oxetan-3-yl)-1,2,3,6-tetrahydropyridin-4-yl]-7H-pyrrolo[2,3-d]pyrimidin-4-yl}-2-(hydroxymethyl)phenyl)-6-cyclopropyl-8-fluoroisoquinolin-1(2H)-one]	0.99 nM	2.2	≥ 90%	< 10 nM	0.46 nM	20 nM
Nc1nc(-c2cccc(-n3ccc4cc(C5CC5)cc(F)c4c3=O)c2CO)c2nc(-c3cccnc3)[nH]c2n1 [Example 25, 2-{3-[2-amino-8-(pyridin-3-yl)-9H-purin-6-yl]-2-(hydroxymethyl)phenyl]-6-cyclopropyl-8-fluoroisoquinolin-1(2H)-one]	–	–	≥ 90%	< 10 nM	–	–
Nc1nc(-c2cccc(-n3ccc4cc(C5CC5)cc(F)c4c3=O)c2CO)c2cc(-c3ccc(CN4CCOCC4)cc3)[nH]c2n1 [Example 26, 2-(3-{2-amino-6-[4-(morpholinomethyl)phenyl]-7H-pyrrolo[2,3-d]pyrimidin-4-yl}-2-(hydroxymethyl)phenyl)-6-cyclopropyl-8-fluoroisoquinolin-1(2H)-one]	–	–	≥ 90%	< 10 nM	–	75 nM
N#Cc1ccc(-c2cc3c(-c4cccc(-n5ccc6cc(C7CC7)cc(F)c6c5=O)c4CO)nc(N)nc3[nH]2)cc1 [Example 27, 4-{2-amino-4-[3-(6-cyclopropyl-8-fluoro-1-oxoisoquinolin-2(1H)-yl)-2-(hydroxymethyl)phenyl]-7H-pyrrolo[2,3-d]pyrimidin-6-yl}benzonitrile]	–	–	≥ 90%	< 10 nM	–	182 nM
Nc1nc(-c2cccc(-n3ccc4cc(C5CC5)cc(F)c4c3=O)c2CO)c2cc(-c3ccsc3)[nH]c2n1 [Example 32, 2-{3-[2-amino-6-(thiophen-3-yl)-7H-pyrrolo[2,3-d]pyrimidin-4-yl]-2-(hydroxymethyl)phenyl}-6-cyclopropyl-8-fluoroisoquinolin-1(2H)-one]	–	–	≥ 90%	< 10 nM	–	79 nM
